The text below walks through data of article PMC10290130, “The potential of phenothiazinium dyes as cytotoxicity markers in cisplatin-treated cells” (Scientific Reports, 2023).

By pKa is commonly meant the negative logarithm of the acid dissociation constant. By log P is commonly meant the decadic logarithm of the partition coefficient of the neutral form, usually between octanol and water.

For data set [1], the system named is Vero cells. The settings on record: 72 h of incubation; cited from earlier work.
The test system of data set [2] is Vero cells and fibroblasts. Description: DMSO cytotoxicity, 72 h, read with phenothiazinium dyes, NR or MTT. The settings on record: DMSO in concentrations above 5%. The class given is cell-based, African green monkey; human. As for the experimental part: (§1) Cells were treated with either DMSO (Vero cells and primary fibroblasts) or cisplatin (LLC-MK2, MCF 10A, and MDA-MB-231). […] After treatment with DMSO and cisplatin, labeling with MTT or NR was performed as described previously[27],[28] with modifications[29],[30]. Cells incubated with phenothiazinium dyes were processed by the same protocol used for NR. […] The cells incubated with MTT were diluted with 100 µl of DMSO. The plates were read at 540 nm (NR) or 570 nm (MTT) in an ELISA reader (Epoch Biotek). Three (LLC-MK2 and MDA-MB-231) and two (Vero cells, human primary fibroblasts and MCF 10A) independent experiments were performed.
(§2) Values for area under the curve were calculated with GraphPad Prism 8.0 software (San Diego, California USA). For cells incubated with DMSO or cisplatin, the percentage of inhibition was calculated from the absorbance of treated samples relative to their non-treated controls. These values were used to calculate the half-maximal inhibitory concentration (IC50) of cisplatin and DMSO, which was done with Compusyn software (version 1.0)[31].

On the set-up of data set [3]: method as in PMID 23758207. The settings on record: cited from earlier work.
Data set [4] concerns Vero cells. Description: Light microscopy of phenothiazinium dye accumulation in cells. The class given is cell-based, African green monkey. The settings on record: during incubation with cells; phenothiazinium dyes 100 µM, NR 50 µg/ml. As for the experimental part:
The accumulation of phenothiazine dyes in cells was detected by light and confocal microscopies. Firstly, Vero cells were incubated with MB, NMB, TBO, and DMMB (100, 50, 25 and 12.5 µM) for 3 h, 37 °C, 5% CO2 and washed with PBS. […] For confocal detection of phenothiazinium dyes, Vero cell cultures were incubated with 10 μM of MB, NMB, TBO or DMMB for 30 min, 37 °C, with 5% CO2. For all procedures, non-treated controls were incubated with RPMI under the same conditions. The cultures were washed with PBS and treated with trypsin for 10 min, 37 °C and 5% CO2. The cells were transferred to slides and analyzed by confocal microscopy with excitation/emission wavelengths of 543/600 nm, respectively.

Data set [5] relates to LLC-MK2. Description: Cisplatin cytotoxicity, 72 h, read with phenothiazinium dyes, NR or MTT. The class given is cell-based, rhesus monkey. As for the experimental part: as §1, §2
The test system of data set [6] is MDA-MB-231. Set-up: method as in PMID 33261142. Conditions: read-out: concentration inhibiting 50% of growth; cited from earlier work.
Data set [7] has as its system MDA-MB-231. Description: Cisplatin cytotoxicity, 72 h, read with phenothiazinium dyes, NR or MTT. It is filed as cell-based, human. As for the experimental part: as §1, §2
The subject of data set [8] is MCF 10A. The data set is described as above. It is filed as cell-based, human. As for the experimental part: as §1, §2

Like-named read-outs stand apart in the source and are kept apart here.

Regarding `Cc1cc(N(C)C)cc2[s+]c3cc(N(C)C)cc(C)c3nc12.[Cl-]` [DMMB, 3,7-bis(dimethylamino)-1,9-dimethylphenothiazin-5-ium chloride], the “concentrations with toxic effects” value in data set [1] is given as “below 10 µM”.

In turn, `C[S+](C)[O-]` [DMSO, dimethyl sulfoxide] showed a cell inhibition in data set [2] greater than 70%.

As to `Cc1cc2nc3ccc(N(C)C)cc3nc2cc1N.Cl` [NR, 3-amino-7-dimethylamino-2-methylphenazine hydrochloride], the pKa in data set [3] is given as 6.9. The lipophilicity (log P) in data set [3] (free base state) is given as 1.9. Besides, the “dye precipitation / crystal formation” value in data set [4] was “Crystals of NR formed”.

Consider `N.N.[Cl][Pt][Cl]` [cisplatin, cis-diammineplatinum (II) dichloride], for which the “concentrations at which cells were resistant” value in data set [5] was less than 50 µM; in data set [8], “below 25 µM”. For the same compound, the IC50 in data set [5] (indicator DMMB) stood at 29.5 µM; in data set [5] (indicator MB), 19 µM; in data set [5] (indicator MTT), 25.2 µM; in data set [5] (indicator NMB) it was 28.2 µM; in data set [5] (indicator NR), 34.9 µM; in data set [5] (indicator TBO) it was 30.4 µM. Further, the IC50 is 6 µM in data set [6]; 1.83 µM in data set [7] (indicator NMB); 8.44 µM in data set [7] (indicator NR); 14.8 µM in data set [8] (indicator DMMB); 9.26 µM in data set [8] (indicator MB); 11.9 µM in data set [8] (indicator MTT). In addition, the results for the IC50 in data set [8] (indicator NMB), in data set [8] (indicator NR) and in data set [8] (indicator TBO) were 17.1 µM, 13.5 µM and 14.6 µM, respectively. In data set [7] (cisplatin at concentrations above 12.5 µM), the cell inhibition entry was “more than 50%”.
